# Assay results: EP0596725A2, “Drug resistance-conferring protein, antibodies reactive therewith and utilities thereof” (ELI LILLY AND COMPANY, priority 1992, dated 1994)
# Columns and labels:
# HL60/S cells = test: IC50 of cells treated with drug (drug sensitivity); assay type: cell-based; settings: Homo sapiens, HL-60, do not express P-glycoprotein, read-out: IC₅₀
# HL60/Adr cells = test: IC50 of cells treated with drug (drug sensitivity); assay type: cell-based; settings: Homo sapiens; HL60/Adr cells (resistant to doxorubicin); express P190, no P-glycoprotein; read-out: IC₅₀
Structure (SMILES),IC50 (HL60/S cells),IC50 (HL60/Adr cells)
"COc1cccc2c1C(=O)c1c(O)c3c(c(O)c1C2=O)C[C@@](O)(C(=O)CO)C[C@@H]3O[C@H]1C[C@H](N)[C@H](O)[C@H](C)O1 [Adriamycin, Doxorubicin]",0.011 µg/mL,2.2 µg/mL
COc1cc([C@@H]2c3cc4c(cc3[C@@H](O[C@@H]3O[C@@H]5CO[C@@H](C)O[C@H]5[C@H](O)[C@H]3O)[C@H]3COC(=O)[C@H]23)OCO4)cc(OC)c1O [Etoposide],0.39 µg/mL,> 10 µg/mL
